Values joined by “and” are separate entries in the source; they are usually repeats but may differ in a detail not shown here. Identical values can stand only once.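 Interpolation was linear, between the two tested concentrations surrounding the appropriate level; five concentrations were tested over 48 hours in 96-well plates. GI50 = concentration required for 50% inhibition of growth.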 Active and inactive are the calls of the source. Cut-off read from the data, not from the text of the source: active = GI50 up to about 1.1 µM and inactive = higher.
What was measured:
Experiment in all cases: inhibition of tumour cell growth, NCI panel, 48 h
786-0 = system: 786-0
A498 = system: A498
A549 = system: A549
ACHN = system: ACHN
BT-549 = system: BT-549
CAKI-1 = system: CAKI-1
CCRF-CEM = system: CCRF-CEM
COLO 205 = system: COLO 205
DU-145 = system: DU-145
EKVX = system: EKVX
HCC 2998 = system: HCC 2998
HCT-116 = system: HCT-116
HCT-15 = system: HCT-15
HL-60 = system: HL-60
HOP-62 = system: HOP-62
HOP-92 = system: HOP-92
HT-29 = system: HT-29
Hs-578T = system: Hs-578T
IGROV-1 = system: IGROV-1
K562 = system: K562
KM12 = system: KM12
LOX IMVI = system: LOX IMVI
M14 = system: M14
MCF7 = system: MCF7
MDA-MB-231 = system: MDA-MB-231
MDA-MB-435 = system: MDA-MB-435
MDA-N = system: MDA-N
MOLT-4 = system: MOLT-4
NCI-H226 = system: NCI-H226
NCI-H23 = system: NCI-H23
NCI-H460 = system: NCI-H460
NCI-H522 = system: NCI-H522
NCI/ADR-RES = system: NCI/ADR-RES
OVCAR-3 = system: OVCAR-3
OVCAR-4 = system: OVCAR-4
OVCAR-5 = system: OVCAR-5
OVCAR-8 = system: OVCAR-8
PC-3 = system: PC-3
RPMI-8226 = system: RPMI-8226
RXF 393 = system: RXF 393
SF-268 = system: SF-268
SF-295 = system: SF-295
SF-539 = system: SF-539
SK-MEL-28 = system: SK-MEL-28
SK-MEL-2 = system: SK-MEL-2
SK-MEL-5 = system: SK-MEL-5
SK-OV-3 = system: SK-OV-3
SN12C = system: SN12C
SNB-19 = system: SNB-19
SNB-75 = system: SNB-75
SR = system: SR
SW-620 = system: SW-620
T47D = system: T47D
TK-10 = system: TK-10
U-251 = system: U-251
UACC-257 = system: UACC-257
UACC-62 = system: UACC-62
UO-31 = system: UO-31
Malme-3M = system: Malme-3M

Structure (SMILES): Cc1cn(C2CCC(CO)(CF)O2)c(=O)[nH]c1=O (stereo not drawn)
- GI50 (786-0): > 100 µM (inactive)
- GI50 (A498): > 100 µM (inactive)
- GI50 (A549): > 100 µM (inactive)
- GI50 (ACHN): > 100 µM (inactive)
- GI50 (BT-549): > 100 µM (inactive)
- GI50 (CAKI-1): > 100 µM (inactive)
- GI50 (CCRF-CEM): > 100 µM (inactive)
- GI50 (COLO 205): > 100 µM (inactive)
- GI50 (DU-145): > 100 µM (inactive)
- GI50 (EKVX): > 100 µM (inactive)
- GI50 (HCC 2998): > 100 µM (inactive)
- GI50 (HCT-116): > 100 µM (inactive)
- GI50 (HCT-15): > 100 µM
- GI50 (HL-60): > 100 µM (inactive)
- GI50 (HOP-62): > 100 µM (inactive)
- GI50 (HOP-92): > 100 µM (inactive)
- GI50 (HT-29): > 100 µM (inactive)
- GI50 (Hs-578T): > 100 µM (inactive)
- GI50 (IGROV-1): > 100 µM (inactive)
- GI50 (K562): > 100 µM (inactive)
- GI50 (KM12): > 100 µM (inactive)
- GI50 (LOX IMVI): > 100 µM (inactive)
- GI50 (M14): > 100 µM (inactive)
- GI50 (MCF7): > 100 µM (inactive)
- GI50 (MDA-MB-231): > 100 µM (inactive)
- GI50 (MDA-MB-435): > 100 µM (inactive)
- GI50 (MDA-N): > 100 µM (inactive)
- GI50 (MOLT-4): > 100 µM (inactive)
- GI50 (NCI-H226): > 100 µM (inactive)
- GI50 (NCI-H23): > 100 µM (inactive)
- GI50 (NCI-H460): > 100 µM (inactive)
- GI50 (NCI-H522): > 100 µM (inactive)
- GI50 (NCI/ADR-RES): > 100 µM (inactive)
- GI50 (OVCAR-3): > 100 µM (inactive)
- GI50 (OVCAR-4): > 100 µM (inactive)
- GI50 (OVCAR-5): > 100 µM (inactive)
- GI50 (OVCAR-8): > 100 µM (inactive)
- GI50 (PC-3): > 100 µM (inactive)
- GI50 (RPMI-8226): > 100 µM (inactive)
- GI50 (RXF 393): > 100 µM (inactive)
- GI50 (SF-268): > 100 µM (inactive)
- GI50 (SF-295): > 100 µM (inactive)
- GI50 (SF-539): > 100 µM (inactive)
- GI50 (SK-MEL-28): > 100 µM (inactive)
- GI50 (SK-MEL-2): > 100 µM (inactive)
- GI50 (SK-MEL-5): > 100 µM (inactive)
- GI50 (SK-OV-3): > 100 µM (inactive)
- GI50 (SN12C): > 100 µM (inactive)
- GI50 (SNB-19): > 100 µM (inactive)
- GI50 (SNB-75): > 100 µM (inactive) and 96.6 µM (inactive)
- GI50 (SR): > 100 µM (inactive)
- GI50 (SW-620): > 100 µM (inactive)
- GI50 (T47D): > 100 µM (inactive)
- GI50 (TK-10): > 100 µM (inactive)
- GI50 (U-251): > 100 µM (inactive)
- GI50 (UACC-257): > 100 µM (inactive)
- GI50 (UACC-62): > 100 µM (inactive)
- GI50 (UO-31): > 100 µM (inactive)

Structure (SMILES): CCOC(=O)Oc1ccc2c(c1)c(=O)c1c(NCCCN(CC)CC)ccc3nnn2c31
- GI50 (786-0): 1.59 µM (inactive)
- GI50 (A498): 11.1 µM (inactive)
- GI50 (A549): 1.64 µM (inactive)
- GI50 (ACHN): 0.82 µM (active)
- GI50 (BT-549): 17.5 µM (inactive)
- GI50 (CAKI-1): 0.53 µM (active)
- GI50 (CCRF-CEM): 0.889 µM (active)
- GI50 (COLO 205): 11.7 µM (inactive)
- GI50 (DU-145): 0.951 µM (active)
- GI50 (EKVX): 10.7 µM (inactive)
- GI50 (HCC 2998): 1.43 µM (inactive)
- GI50 (HCT-116): 1.37 µM (inactive)
- GI50 (HCT-15): 3.09 µM
- GI50 (HOP-62): 1.75 µM (inactive)
- GI50 (HOP-92): 6.76 µM (inactive)
- GI50 (HT-29): 2.55 µM (inactive)
- GI50 (Hs-578T): 20.5 µM (inactive)
- GI50 (IGROV-1): 5.36 µM (inactive)
- GI50 (K562): 5.13 µM (inactive)
- GI50 (KM12): 0.982 µM (active)
- GI50 (LOX IMVI): 2.52 µM (inactive)
- GI50 (M14): 12.3 µM (inactive)
- GI50 (MCF7): 0.929 µM (active)
- GI50 (MDA-MB-231): 1.12 µM (inactive)
- GI50 (MDA-MB-435): 5.45 µM (inactive)
- GI50 (MDA-N): 1.19 µM (inactive)
- GI50 (MOLT-4): 0.745 µM (active)
- GI50 (Malme-3M): 13.4 µM (inactive)
- GI50 (NCI-H226): 7.18 µM (inactive)
- GI50 (NCI-H23): 13.3 µM (inactive)
- GI50 (NCI-H460): 0.337 µM (active)
- GI50 (NCI-H522): 1.56 µM (inactive)
- GI50 (NCI/ADR-RES): 7.76 µM (inactive)
- GI50 (OVCAR-3): 5.5 µM (inactive)
- GI50 (OVCAR-4): 0.33 µM (active)
- GI50 (OVCAR-5): 16.6 µM (inactive)
- GI50 (OVCAR-8): 3.48 µM (inactive)
- GI50 (PC-3): 0.303 µM (active)
- GI50 (RPMI-8226): 2.17 µM (inactive)
- GI50 (RXF 393): 1.81 µM (inactive)
- GI50 (SF-268): 11.6 µM (inactive)
- GI50 (SF-295): 1.82 µM (inactive)
- GI50 (SF-539): 5.62 µM (inactive)
- GI50 (SK-MEL-28): 18.6 µM (inactive)
- GI50 (SK-MEL-2): 16.2 µM (inactive)
- GI50 (SK-MEL-5): 10.2 µM (inactive)
- GI50 (SK-OV-3): 11.3 µM (inactive)
- GI50 (SN12C): 3.67 µM (inactive)
- GI50 (SNB-19): 5.2 µM (inactive)
- GI50 (SR): 1.57 µM (inactive)
- GI50 (SW-620): 2.24 µM (inactive)
- GI50 (T47D): 16.8 µM (inactive)
- GI50 (TK-10): 2.79 µM (inactive)
- GI50 (U-251): 10.4 µM (inactive)
- GI50 (UACC-257): 15.4 µM (inactive)
- GI50 (UACC-62): 15.3 µM (inactive)
- GI50 (UO-31): 0.598 µM (active)

Structure (SMILES): COc1cc2ccccc2oc1=O
- GI50 (786-0): > 100 µM (inactive)
- GI50 (A498): > 100 µM (inactive)
- GI50 (A549): > 100 µM (inactive)
- GI50 (ACHN): 63 µM (inactive)
- GI50 (BT-549): 19.8 µM (inactive)
- GI50 (CAKI-1): 99.3 µM (inactive)
- GI50 (CCRF-CEM): 41.9 µM (inactive)
- GI50 (COLO 205): > 100 µM (inactive)
- GI50 (DU-145): > 100 µM (inactive)
- GI50 (EKVX): 51.1 µM (inactive)
- GI50 (HCC 2998): 78.2 µM (inactive)
- GI50 (HCT-116): > 100 µM (inactive)
- GI50 (HCT-15): > 100 µM
- GI50 (HL-60): 50.8 µM (inactive)
- GI50 (HOP-62): 59.8 µM (inactive)
- GI50 (HOP-92): 40 µM (inactive)
- GI50 (HT-29): > 100 µM (inactive)
- GI50 (Hs-578T): 45.9 µM (inactive)
- GI50 (IGROV-1): > 100 µM (inactive)
- GI50 (K562): > 100 µM (inactive)
- GI50 (KM12): > 100 µM (inactive)
- GI50 (LOX IMVI): > 100 µM (inactive)
- GI50 (M14): 81.7 µM (inactive)
- GI50 (MCF7): 54.8 µM (inactive)
- GI50 (MDA-MB-231): > 100 µM (inactive)
- GI50 (MDA-MB-435): > 100 µM (inactive)
- GI50 (MDA-N): > 100 µM (inactive)
- GI50 (MOLT-4): 67.3 µM (inactive)
- GI50 (Malme-3M): 99.1 µM (inactive)
- GI50 (NCI-H226): > 100 µM (inactive)
- GI50 (NCI-H23): 94.2 µM (inactive)
- GI50 (NCI-H460): 45.5 µM (inactive)
- GI50 (NCI-H522): 32.6 µM (inactive)
- GI50 (NCI/ADR-RES): 97.5 µM (inactive)
- GI50 (OVCAR-3): 74.5 µM (inactive)
- GI50 (OVCAR-4): > 100 µM (inactive)
- GI50 (OVCAR-5): > 100 µM (inactive)
- GI50 (OVCAR-8): > 100 µM (inactive)
- GI50 (PC-3): > 100 µM (inactive)
- GI50 (RPMI-8226): > 100 µM (inactive)
- GI50 (RXF 393): 0.33 µM (active)
- GI50 (SF-268): 51.6 µM (inactive)
- GI50 (SF-295): > 100 µM (inactive)
- GI50 (SF-539): > 100 µM (inactive)
- GI50 (SK-MEL-28): 84.5 µM (inactive)
- GI50 (SK-MEL-2): 23.3 µM (inactive)
- GI50 (SK-MEL-5): > 100 µM (inactive)
- GI50 (SN12C): > 100 µM (inactive)
- GI50 (SNB-19): > 100 µM (inactive)
- GI50 (SNB-75): 57.3 µM (inactive)
- GI50 (SR): > 100 µM (inactive)
- GI50 (SW-620): > 100 µM (inactive)
- GI50 (T47D): 1.85 µM (inactive)
- GI50 (TK-10): 77.6 µM (inactive)
- GI50 (U-251): > 100 µM (inactive)
- GI50 (UACC-257): > 100 µM (inactive)
- GI50 (UACC-62): 24 µM (inactive)
- GI50 (UO-31): 39 µM (inactive)
